Experimental data published in publication PMC5613016, “GRL-09510, a Unique P2-Crown-Tetrahydrofuranylurethane -Containing HIV-1 Protease Inhibitor, Maintains Its Favorable Antiviral Activity against Highly-Drug-Resistant HIV-1 Variants in vitro” (Scientific Reports, 2017).

How the values were obtained:
[1] = tested on: HIV-1NL4-3 variants selected with ATV, LPV and APV; assay: p24 assay in MT-4 cells, summary over PI-selected variants; type: cell-based
Protocol: (§1) The susceptibility of HIV-1LAI or HIV-2ROD to various compounds was determined as previously described[20]–[22]. Briefly, MT-2 cells (10^4/ml) were exposed to 100 TCID50 of HIV-1LAI or HIV-2ROD in the presence or absence of various concentrations of compounds in 96-well plates and were incubated at 37 °C for 7 days. After incubation, 100 μl of the medium was removed from each well, 3-(4,5-dimetylthiazol-2-yl)-2,5-diphenyltetrazolium bromide (MTT) solution (10 μl, 7.5 mg/ml in PBS) was added to each well, followed by incubation at 37 °C for 2 h. […] To determine the sensitivity of clinically isolated HIV-1s to compounds, PHA-PBMC (10^6/ml) were exposed to 50 TCID50 of each HIV-1 and cultured in the presence or absence of various concentrations of compounds in 10-fold serial dilutions in 96-well plates. In determining the drug-susceptibility of certain laboratory HIV-1 strains, MT-4 cells were employed as target cells as previously described[23],[24]. MT-4 cells (10^5/ml) were exposed to 100 TCID50 of drug-resistant HIV-1s in the presence or absence of various concentrations of compounds and were incubated at 37 °C. On day 7, the supernatants were harvested and the amounts of p24 were determined by using a fully-automated chemiluminescent enzyme immunoassay system (Lumipulse f: Fujirebio, Tokyo)[35]–[37]. […]

HIV-1MDR/B = assay: p24 production inhibition in PHA-PBMC; type: cell-based
Protocol: (§2) The susceptibility of HIV-1LAI or HIV-2ROD to various compounds was determined as previously described[20]–[22]. Briefly, MT-2 cells (10^4/ml) were exposed to 100 TCID50 of HIV-1LAI or HIV-2ROD in the presence or absence of various concentrations of compounds in 96-well plates and were incubated at 37 °C for 7 days. After incubation, 100 μl of the medium was removed from each well, 3-(4,5-dimetylthiazol-2-yl)-2,5-diphenyltetrazolium bromide (MTT) solution (10 μl, 7.5 mg/ml in PBS) was added to each well, followed by incubation at 37 °C for 2 h. […] To determine the sensitivity of clinically isolated HIV-1s to compounds, PHA-PBMC (10^6/ml) were exposed to 50 TCID50 of each HIV-1 and cultured in the presence or absence of various concentrations of compounds in 10-fold serial dilutions in 96-well plates. In determining the drug-susceptibility of certain laboratory HIV-1 strains, MT-4 cells were employed as target cells as previously described[23],[24]. MT-4 cells (10^5/ml) were exposed to 100 TCID50 of drug-resistant HIV-1s in the presence or absence of various concentrations of compounds and were incubated at 37 °C. On day 7, the supernatants were harvested and the amounts of p24 were determined by using a fully-automated chemiluminescent enzyme immunoassay system (Lumipulse f: Fujirebio, Tokyo)[35]–[37]. […] All assays were performed in duplicate, and EC50 shown in this report represent average values of two to four independent experiments. PHA-PBMCs were derived from a single donor in each independent experiment. The research protocols described in the present study were carried out in accordance with relevant guidelines and regulations, and were approved in Ethics Committee for Epidemiological and General Research at the Faculty of Life Sciences, Kumamoto University.

[2] = tested on: HIV-1ERS104pre (wild-type); assay: p24 production inhibition in PHA-PBMC; type: cell-based; conditions: Human immunodeficiency virus 1, PHA-PBMC, p24 Gag production
Protocol: as §2

HIV-1MDRmix DRV ^R 20P = assay: p24 production inhibition in PHA-PBMC; type: cell-based
Protocol: as §2

[3] = tested on: HIV-1ME46 (subtype B, X4/R5); assay: p24 production inhibition in PHA-PBMC; type: cell-based; conditions: Human immunodeficiency virus 1, PHA-PBMC, p24 Gag production
Protocol: as §2

HIV-1MDR/G = assay: p24 production inhibition in PHA-PBMC; type: cell-based
Protocol: as §2

HIV-1BaL (subtype B, R5) = assay: p24 production inhibition in PHA-PBMC; type: cell-based; conditions: Human immunodeficiency virus 1, PHA-PBMC, p24 Gag production
Protocol: as §2

HIV-1MDR/TM = assay: p24 production inhibition in PHA-PBMC; type: cell-based
Protocol: as §2

HIV-1MDR/C = assay: p24 production inhibition in PHA-PBMC; type: cell-based
Protocol: as §2

[4] = Cytotoxicity against MT-2 cells (MTT assay); type: cell-based; conditions: human
Protocol: as §2

HIVMDR strains = assay: p24 production inhibition in PHA-PBMC, summary over HIVMDR strains; type: cell-based, HIV-1; conditions: Human immunodeficiency virus 1, range over clinical HIVMDR isolates, read-out: EC50 values against HIVMDR
Protocol: as §1

[5] = tested on: HIV-192UG029 (subtype A, X4); assay: p24 production inhibition in PHA-PBMC; type: cell-based, HIV-1; conditions: Human immunodeficiency virus 1, read-out: EC50 HIV-192UG029 (subtype A, X4)
Protocol: as §2

HIV-1APV ^R 5μM = assay: p24 production inhibition in MT-4 cells; type: cell-based
Protocol: as §2

HIV-1LPV ^R 5μM = assay: p24 production inhibition in MT-4 cells; type: cell-based
Protocol: as §2

HIV-1_9510 ^R 36P = assay: p24 production inhibition in MT-4 cells; type: cell-based
Protocol: as §2

HIV-1ATV ^R 5μM = assay: p24 production inhibition in MT-4 cells; type: cell-based
Protocol: as §2

HIV-1NL4-3 [6] = assay: p24 production inhibition in MT-4 cells; type: cell-based; conditions: Human immunodeficiency virus 1, MT4, MT-4 cells
Protocol: as §2

HIV-1NL4-3 [7] = assay: Viral growth kinetics in MT-4 cells (p24); type: cell-based; conditions: as low as 0.01 µM, 7 days
Protocol: The GRL-09510-resistant variant at passage 36 was propagated in fresh MT-4 cells without GRL-09510 for 7 days, and aliquoted HIV-1_9510 ^R P36 viral stocks were stored at −80 °C. MT-4 cells (3.2 × 10^5) were exposed to the HIV-1_9510 ^R P36 or wild-type HIV-1NL4-3 preparation containing 10 ng/ml p24 in 6-well plates for 3 hours, and the infected MT-4 cells were washed with fresh medium, divided into 4 fractions and each cultured with or without GRL-09510 (final concentration of MT-4 cells 10^4/ml, and drug concentrations 0, 0.01, 0.1 and 1 μΜ). The amounts of p24 were measured every two days for up to 7 days.

[8] = tested on: laboratory and primary clinical HIV-1 isolates; assay: Antiviral activity, summary over strains; type: cell-based; conditions: Human immunodeficiency virus 1; range over isolates; read-out: EC50 against laboratory and primary clinical HIV-1 isolates
Protocol: as §1

HIV-1LAI = assay: microbe, parasite or virus in culture; type: cell-based
Protocol: as §2

HIV-2ROD = assay: microbe, parasite or virus in culture; type: cell-based
Protocol: as §2

[9] = compared to EC50 for HIV-1ERS104pre
[10] = compared to HIV-1WT/ERS104pre, Supplemental Table 4
[11] = number in parentheses, compared to HIV-1NL4-3

For `COc1ccc(S(=O)(=O)N(CC(C)C)CC(O)C(Cc2ccccc2)NC(=O)OC2C3COC4OCC2C4C3)cc1` (stereo not drawn) [GRL-09510], the EC50 ([1]; Human immunodeficiency virus 1, MT4, MT-4 cells, variants selected with up to 5 µM ATV, LPV, APV, read-out: EC50 against PI-selected HIV-1NL4-3 variants) was 3.7 to 4.8 nM, the “fold-differences of EC50 against PI-selected variants” value ([1]; compared to against HIV-1NL4-3) was 1~2 and the EC50 (HIV-1MDR/B; PHA-PBMC, p24 Gag production) was 3.7 ± 0.1 nM. For the same compound, the “fold change of EC50 HIV-1MDR/B” value (HIV-1MDR/B; [9]) was 1, the EC50 [2] was 3.5 ± 0.1 nM and the “fold more effective than DRV against HIV-1DRV ^R 20P” value (HIV-1MDRmix DRV ^R 20P; PHA-PBMC, p24) was 12 fold. For the same compound, the “fold change of EC50 HIV-1MDRmix DRV ^R 20P” value (HIV-1MDRmix DRV ^R 20P; [9]) was 7, the “fold change in EC50 HIV-1MDRmixDRVR20P” value (HIV-1MDRmix DRV ^R 20P; [10]) was 7 and the EC50 (HIV-1MDRmix DRV ^R 20P; read-out: EC50 HIV-1MDRmix DRV ^R 20P, PHA-PBMC, p24 Gag production) was 25 ± 1 nM. For the same compound, the EC50 [3] was 1.2 ± 0.2 nM, the EC50 (HIV-1MDR/G; PHA-PBMC, p24 Gag production) was 3.3 ± 1.4 nM and the “fold change of EC50 HIV-1MDR/G” value (HIV-1MDR/G; [9]) was 1. For the same compound, the “fold change in EC50 HIV-1MDR/G” value (HIV-1MDR/G; [10]) was 1, the EC50 (HIV-1BaL (subtype B, R5)) was 3.1 ± 0.4 nM and the EC50 (HIV-1MDR/TM; PHA-PBMC, p24 Gag production) was 4 ± 0.6 nM. For the same compound, the “fold change of EC50 HIV-1MDR/TM” value (HIV-1MDR/TM; [9]) was 1, the EC50 (HIV-1MDR/C; Human immunodeficiency virus 1, PHA-PBMC, p24 Gag production) was 3.2 ± 0.6 nM and the “fold change of EC50 HIV-1MDR/C” value (HIV-1MDR/C; [9]) was 1. It also gave a CC50 [4] of 39000 ± 700 nM, an EC50 (HIVMDR strains) of 3.2 to 4 nM and an EC50 [5] of 2.7 ± 0.1 nM. For the same compound, the “fold change in EC50 HIV-1APVR5M” value (HIV-1APV ^R 5μM; compared to HIV-1NL4-3, Supplemental Table 4) was 2, the “fold change of EC50 HIV-1APV ^R 5μM” value (HIV-1APV ^R 5μM; [11]) was 2 and the EC50 (HIV-1APV ^R 5μM; read-out: EC50 HIV-1APV ^R 5μM, MT-4 cells, p24 Gag production) was 4.8 ± 0.1 nM. The “fold change of EC50 HIV-1LPV ^R 5μM” value (HIV-1LPV ^R 5μM; [11]) was 1, the EC50 (HIV-1LPV ^R 5μM; read-out: EC50 HIV-1LPV ^R 5μM, MT-4 cells, p24 Gag production) was 3.9 ± 0.5 nM and the EC50 (HIV-1_9510 ^R 36P; Human immunodeficiency virus 1, MT4, MT-4 cells, p24 assay, read-out: EC50 HIV-1_9510 ^R 36P) was 24 ± 2 nM. The “fold change of EC50 HIV-19510RP36” value (HIV-1_9510 ^R 36P; compared to EC50 for HIV-1NL4-3, Supplemental Table 3) was 11, the “fold change of EC50 HIV-1_9510 ^R 36P” value (HIV-1_9510 ^R 36P; compared to the value against HIV-1NL4-3) was 11 and the “fold change of EC50 HIV-1ATV ^R 5μM” value (HIV-1ATV ^R 5μM; [11]) was 1. The EC50 (HIV-1ATV ^R 5μM; read-out: EC50 HIV-1ATV ^R 5μM, MT-4 cells, p24 Gag production) was 3.7 ± 0.9 nM, the EC50 (HIV-1NL4-3 [6]; p24 Gag production, Table 3) was 2.8 ± 0.7 nM and the EC50 (HIV-1NL4-3 [6]; p24 assay, Table 4, four to six independent experiments) was 2.2 ± 0.9 nM. For the same compound, the “growth of HIV-1NL4-3 in the presence of drug” value (HIV-1NL4-3 [7]) was “failed to grow”, the EC50 [8] was 1.4 to 2.8 nM and the EC50 (HIV-1LAI; Human immunodeficiency virus 1, MT2, MT-2 cells, 100 TCID50, MTT assay, read-out: EC50 Against HIV-1LAI) was 1.4 ± 0.9 nM. For the same compound, the “Selectivity Index (CC50/EC50) MT2/HIV-1LAI” value (HIV-1LAI; ratio of CC50 to EC50 against HIV-1LAI) was 27,857, the EC50 (HIV-2ROD; MT-2 cells, 100 TCID50, MTT assay, read-out: EC50 Against HIV-2ROD) was 1.8 ± 0.1 nM and the “Selectivity Index (CC50/EC50) MT2/HIV-2ROD” value (HIV-2ROD; ratio of CC50 to EC50 against HIV-2ROD) was 21,667.
